Reference: US5051403A (priority 1989, dated 1991)
Values joined by “and” are separate entries in the source; they are usually repeats but may differ in a detail not shown here. Equal entries are not always repeated. Bridge positions count the residues as written; N and C are the ends. Square brackets hold non-standard residues; d marks the D form. Ends that are not written are not given here. Peptide text beside a SMILES is read from it. * marks the point of attachment. Hyp = O=C(O)[C@@H]1C[C@@H](O)CN1; Acm = CC(=O)NC*

Molecular target: OCT binding sites, elasmobranch electric organ synaptosomes (Diplobatis ommata, UniProt P56698)
Sequence (P56698 whole entry, looked up): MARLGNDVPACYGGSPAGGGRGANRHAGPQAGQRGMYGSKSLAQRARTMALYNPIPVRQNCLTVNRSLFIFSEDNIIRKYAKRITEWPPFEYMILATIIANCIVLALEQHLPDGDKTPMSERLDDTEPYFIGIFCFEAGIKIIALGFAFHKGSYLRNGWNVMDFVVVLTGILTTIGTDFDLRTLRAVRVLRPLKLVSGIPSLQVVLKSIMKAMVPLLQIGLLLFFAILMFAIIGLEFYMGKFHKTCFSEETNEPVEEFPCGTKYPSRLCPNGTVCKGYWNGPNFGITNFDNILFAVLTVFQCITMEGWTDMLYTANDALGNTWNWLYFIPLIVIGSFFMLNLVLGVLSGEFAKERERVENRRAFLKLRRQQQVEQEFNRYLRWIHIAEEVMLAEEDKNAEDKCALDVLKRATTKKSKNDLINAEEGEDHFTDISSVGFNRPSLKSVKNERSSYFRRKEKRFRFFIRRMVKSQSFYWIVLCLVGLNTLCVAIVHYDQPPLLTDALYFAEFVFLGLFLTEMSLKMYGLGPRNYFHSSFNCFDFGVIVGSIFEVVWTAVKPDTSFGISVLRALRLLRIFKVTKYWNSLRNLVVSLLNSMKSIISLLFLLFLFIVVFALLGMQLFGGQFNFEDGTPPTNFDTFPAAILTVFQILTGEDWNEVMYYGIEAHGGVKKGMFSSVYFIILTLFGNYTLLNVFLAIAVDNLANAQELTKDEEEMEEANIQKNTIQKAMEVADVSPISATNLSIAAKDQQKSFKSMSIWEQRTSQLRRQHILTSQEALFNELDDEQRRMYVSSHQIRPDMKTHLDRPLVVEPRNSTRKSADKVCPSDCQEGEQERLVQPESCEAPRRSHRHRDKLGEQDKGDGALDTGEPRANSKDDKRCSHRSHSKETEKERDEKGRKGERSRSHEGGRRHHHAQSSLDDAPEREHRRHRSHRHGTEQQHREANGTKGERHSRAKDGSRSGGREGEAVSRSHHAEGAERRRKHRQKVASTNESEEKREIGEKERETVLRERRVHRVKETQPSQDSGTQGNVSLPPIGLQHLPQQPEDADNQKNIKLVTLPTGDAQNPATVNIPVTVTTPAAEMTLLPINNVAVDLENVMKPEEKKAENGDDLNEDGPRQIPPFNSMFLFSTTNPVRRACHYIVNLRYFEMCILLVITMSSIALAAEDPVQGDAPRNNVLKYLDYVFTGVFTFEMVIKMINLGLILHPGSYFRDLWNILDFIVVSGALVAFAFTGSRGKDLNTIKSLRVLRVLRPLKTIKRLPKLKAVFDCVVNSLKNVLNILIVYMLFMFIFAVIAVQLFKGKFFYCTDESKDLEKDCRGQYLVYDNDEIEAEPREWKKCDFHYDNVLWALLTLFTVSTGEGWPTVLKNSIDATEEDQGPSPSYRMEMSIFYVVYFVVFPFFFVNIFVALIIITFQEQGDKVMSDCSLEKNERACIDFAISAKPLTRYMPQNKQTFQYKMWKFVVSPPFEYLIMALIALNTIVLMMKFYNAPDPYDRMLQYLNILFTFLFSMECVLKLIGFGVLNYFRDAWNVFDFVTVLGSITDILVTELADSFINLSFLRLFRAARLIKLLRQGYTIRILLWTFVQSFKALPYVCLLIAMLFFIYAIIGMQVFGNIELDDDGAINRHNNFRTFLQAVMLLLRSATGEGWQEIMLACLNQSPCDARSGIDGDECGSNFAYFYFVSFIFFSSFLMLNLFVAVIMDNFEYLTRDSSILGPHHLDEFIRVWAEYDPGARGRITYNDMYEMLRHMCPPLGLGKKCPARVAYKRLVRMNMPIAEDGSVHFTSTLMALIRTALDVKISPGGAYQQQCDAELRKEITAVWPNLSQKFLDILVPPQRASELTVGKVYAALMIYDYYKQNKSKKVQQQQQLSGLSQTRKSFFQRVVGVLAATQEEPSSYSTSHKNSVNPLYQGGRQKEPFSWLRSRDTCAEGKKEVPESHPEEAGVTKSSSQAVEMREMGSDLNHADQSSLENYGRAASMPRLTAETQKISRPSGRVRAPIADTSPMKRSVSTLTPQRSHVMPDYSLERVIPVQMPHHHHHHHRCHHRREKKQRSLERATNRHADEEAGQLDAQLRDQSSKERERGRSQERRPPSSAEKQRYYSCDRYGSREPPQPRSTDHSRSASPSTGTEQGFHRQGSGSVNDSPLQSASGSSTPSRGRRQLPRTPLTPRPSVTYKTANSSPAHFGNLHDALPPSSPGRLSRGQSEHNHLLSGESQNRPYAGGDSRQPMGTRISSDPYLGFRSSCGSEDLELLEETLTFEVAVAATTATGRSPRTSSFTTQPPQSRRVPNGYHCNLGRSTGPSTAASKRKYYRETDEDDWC
Test: biochemical
Parameters: species or system Ommata dyscopyge (marine electric ray)
Conditions: pKi

For C[C@@H]1NC(=O)[C@H](CO)NC(=O)[C@H](CO)NC(=O)CNC(=O)[C@@H]2C[C@@H](O)CN2C(=O)[C@H](CO)NC(=O)[C@H](CCCCN)NC(=O)[C@@H](N)CSSC[C@@H](C(N)=O)NC(=O)[C@H](C)NC(=O)[C@H](CC(N)=O)NC(=O)[C@H](Cc2ccc(O)cc2)NC(=O)[C@H](CO)NC(=O)[C@H]([C@@H](C)O)NC(=O)[C@@H]2C[C@@H](O)CN2C(=O)[C@H](CO)NC1=O [GVIA 177] (H-CKS[Hyp]GSSAS[Hyp]TSYNAC-NH2; disulfide 1-16), the Ki was greater than 1000 µM.

C[C@@H]1NC(=O)[C@H](C)NC(=O)[C@H](CO)NC(=O)[C@H](CO)NC(=O)CNC(=O)[C@@H]2C[C@@H](O)CN2C(=O)[C@H](CO)NC(=O)[C@H](CCCCN)NC(=O)[C@@H](N)CSSC[C@@H](C(=O)N[C@@H](Cc2ccc(O)cc2)C(N)=O)NC(=O)[C@H](CCCNC(=N)N)NC(=O)[C@H](CCCCN)NC(=O)[C@H]([C@@H](C)O)NC(=O)[C@H](Cc2ccc(O)cc2)NC(=O)[C@@H]2C[C@@H](O)CN2C(=O)[C@H](CC(N)=O)NC1=O [GVIA 180] (H-CKS[Hyp]GSSAAN[Hyp]YTKRCY-NH2; disulfide 1-16) showed a Ki of 123 µM.

Work on CC(=O)NCSC[C@@H]1NC(=O)[C@H](CO)NC(=O)CNC(=O)[C@H]([C@@H](C)O)NC(=O)[C@H](CSCNC(C)=O)NC(=O)[C@@H](N)CSSC[C@@H](C(N)=O)NC(=O)[C@H](CCCCN)NC(=O)CNC(=O)[C@H](CO)NC(=O)[C@H](CCCNC(=N)N)NC1=O [MVIIA 160] yielded a Ki of 120 µM.

CSCC[C@@H]1NC(=O)[C@H](CC(C)C)NC(=O)[C@H](CCCNC(=N)N)NC(=O)[C@H](CO)NC(=O)[C@@H](N)CSSC[C@@H](C(N)=O)NC(=O)[C@H](CO)NC(=O)CNC(=O)[C@H]([C@@H](C)O)NC(=O)[C@H](CSCNC(C)=O)NC(=O)[C@H](CSCNC(C)=O)NC(=O)[C@H](CC(=O)O)NC(=O)[C@H](Cc2ccc(O)cc2)NC1=O [MVIIA 161] (H-CSRLMYDC(Acm)C(Acm)TGSC-NH2; disulfide 1-13) was tested, and the Ki was greater than 1000 µM.

With CC(=O)NCSC[C@@H]1NC(=O)[C@H](CCCCN)NC(=O)[C@H](C)NC(=O)CNC(=O)[C@H](CCCCN)NC(=O)CNC(=O)[C@H](CCCCN)NC(=O)[C@@H](N)CSSC[C@@H](C(N)=O)NC(=O)[C@H](CCCCN)NC(=O)CNC(=O)[C@H](CO)NC(=O)[C@H](CCCNC(=N)N)NC(=O)[C@H](CSCNC(C)=O)NC1=O [MVIIA 162] (H-CKGKGAKC(Acm)C(Acm)RSGKC-NH2; disulfide 1-14) the Ki was < 1 µM and 0.17 µM.

With CSCC[C@@H]1NC(=O)[C@H](CC(C)C)NC(=O)[C@H](CCCNC(=N)N)NC(=O)[C@H](CO)NC(=O)[C@H](CSCNC(C)=O)NC(=O)[C@H](CCCCN)NC(=O)[C@H](C)NC(=O)CNC(=O)[C@H](CCCCN)NC(=O)CNC(=O)[C@H](CCCCN)NC(=O)[C@@H](N)CSSC[C@@H](C(N)=O)NC(=O)[C@H](CSCNC(C)=O)NC(=O)[C@H](CC(=O)O)NC(=O)[C@H](Cc2ccc(O)cc2)NC1=O [MVIIA 163] the Ki was 219 µM.

In the case of C[C@@H]1NC(=O)CNC(=O)[C@H](CCCCN)NC(=O)CNC(=O)[C@H](CCCCN)NC(=O)[C@@H](N)CSSC[C@@H](C(=O)N[C@@H](CO)C(=O)N[C@@H](CCCNC(=N)N)C(N)=O)NC(=O)[C@H](CCCCN)NC1=O [MVIIA 170], the Ki is reported as < 1 µM and 0.282 µM.

CSCC[C@@H]1NC(=O)[C@H](CC(C)C)NC(=O)[C@H](CCCNC(=N)N)NC(=O)[C@H](CO)NC(=O)[C@H](C)NC(=O)[C@H](CCCCN)NC(=O)[C@H](C)NC(=O)CNC(=O)[C@H](CCCCN)NC(=O)CNC(=O)[C@H](CCCCN)NC(=O)[C@@H](N)CSSC[C@@H](C(N)=O)NC(=O)[C@H](C)NC(=O)[C@H](CC(=O)O)NC(=O)[C@H](Cc2ccc(O)cc2)NC1=O [MVIIA 171] (H-CKGKGAKASRLMYDAC-NH2; disulfide 1-16) showed a Ki of 4.68 µM.

CSCC[C@@H]1NC(=O)[C@H](CC(C)C)NC(=O)[C@H](CCCNC(=N)N)NC(=O)[C@H](CO)NC(=O)[C@@H]2CSSC[C@H](NC(=O)[C@H](CC(=O)O)NC(=O)[C@H](Cc3ccc(O)cc3)NC1=O)C(=O)N[C@H](C(N)=O)CSSC[C@H](N)C(=O)N[C@@H](CCCCN)C(=O)NCC(=O)N[C@@H](CCCCN)C(=O)NCC(=O)N[C@@H](C)C(=O)N[C@@H](CCCCN)C(=O)N2 [MVIIA 172] showed a Ki of 20.9 µM.

For C[C@@H]1NC(=O)CNC(=O)[C@H](CCCCN)NC(=O)CNC(=O)[C@H](CCCCN)NC(=O)[C@@H](N)CSSC[C@@H](C(N)=O)NC(=O)[C@H](CCCCN)NC(=O)CNC(=O)[C@H](CO)NC(=O)[C@H](CCCNC(=N)N)NC(=O)[C@H](C)NC(=O)[C@H](C)NC(=O)[C@H](CCCCN)NC1=O [MVIIA 175] (H-CKGKGAKAARSGKC-NH2; disulfide 1-14), the Ki was 3.63 µM.

Compound C[C@@H]1NC(=O)[C@H](C)NC(=O)[C@H](CCCCN)NC(=O)[C@H](CO)NC(=O)CNC(=O)[C@H](CCCCN)NC(=O)[C@H](CO)NC(=O)[C@H](CCCCN)NC(=O)[C@@H](N)CSSC[C@@H](C(N)=O)NC(=O)[C@H](CCCCN)NC(=O)CNC(=O)[C@H](CO)NC(=O)[C@H](CCCNC(=N)N)NC1=O [MVIIA 176] (H-CKSKGSKAARSGKC-NH2; disulfide 1-14) has a Ki of 1.82 µM.

AKGKGAKASR-NH2 [MVIIA 174] was tested, and the Ki was < 1 µM and 0.525 µM.
